# Tested on: tau phosphorylation
# Assay: Tau phosphorylation after concussive injury in the rat (rodent model of concussion, FIG. 3)
# Format: in vivo
# Conditions: NK1 receptor antagonist administered at 30 min after induction of injury, assessed at 3 day time point, compared with injured untreated animals
# From the text: Note that concussive injury in the rat causes extensive tau phosphorylation (C,D) by 3 days after the concussive event compared to non-injured animals (A,B). […] Concussion results in perivascular substance P release Having established that hyperphosphorylated tau accumulates perivascularly following concussive injury, we used an animal model of concussion to investigate whether concussion causes perivascular release of substance P. We developed a rodent model of concussion to replicate the concussive event (Donkin et al., 2004, 7th International Neurotrauma Symposium, pp 75-78, Medimond Publishers, Bologna, Italy) and subsequently determined whether substance P was released after such an event. There was a clear increase in brain perivascular substance P immunoreactivity after the concussive event (FIG. 2). […] Administration of a NK1 receptor antagonist prevents tau phosphorylation Having shown that mechanical injury causes release of substance P after concussive injury, we then investigated whether a substance P NK1 receptor antagonist reduces tau hyperphosphorlation after concussive injury. […] Note that concussive injury in the rat causes extensive tau phosphorylation (C,D) by 3 days after the concussive event compared to non-injured animals (A,B). […] Thus, administration of an NK1 receptor antagonist prevents tau hyperphosphorylation and thus prevents the development of CTE.
compound,measurement,value
"CC(=O)N[C@@H](Cc1c[nH]c2ccccc12)C(=O)O [n-acetyl-L-tryptophan, N-acetyl-L-tryptophan]",effect on tau phosphorylation after concussive injury,almost complete inhibition of tau phosphorylation

# Source: patent US12419861B2, “Method for preventing and/or treating chronic traumatic encephalopathy-i” (EUSTRALIS PHARMACEUTICALS LIMITED (trading as Pressura …, priority 2013, dated 2025)
